Legend:
TNNT2 = test: Nanostring gene expression, hESC-derived cardiomyocytes in monolayer: TNNT2; format: cell-based, human
Method: (§3) Blank medium, addition of solvents as well as cardiomyocytes cultured for 9 days and day 42 were used as control. Beating of cells was assessed after 48 h, 72 h and 96 h. Cells were harvested following incubation for 10 minutes in RLTplus buffer (Qiagen). Changes in gene expression were determined using a custom nanostring gene panel (NanoString Technologies) according to manufacturer's instruction for the following target sequences including 7 housekeeping genes listed in Table 1.
(§4) To study the direct impact of antiarrhythmic drugs on the properties of hESC-derived cardiomyocytes, changes in expression level of selected genes were analyzed that are associated with action potential formation (HCN1, HCN4, KCNA5, KCNE4, KCNH7, KCNJ3, KCNJ5, SCN1B, SCN5A), electrical signal propagation (GJA1, GJA5, GJD3), calcium handling (CACNA1C, CACNA1D, CACNA1G, RYR2, PLN), cardiac maturation (HOPX, MYH7, MYL2, TNN13) and cardiac hypertrophy (NPPA, NPPB) as well as pan-cardiomyocyte markers (NKX2-5, TNNT2, ACTA2).

NPPA [1] = test: Nanostring gene expression, hESC-derived cardiomyocytes in monolayer: NPPA; format: cell-based, human
Method: as §3, §4

[2] = system: human induced pluripotent stem cell derived cardiomyocytes (iCell2 cardiomyocytes); test: Ca2+-recordings, beat-to-beat variability (CV), single agents; format: cell-based; settings: 24 h after withdrawal
Text: In order to determine the lasting impact on the electrophysiological properties of the stem-cell derived cardiomyocytes following exposure to anti-arrhythmic agents, we conducted functional cardiomyocyte testing by means of Ca^2+-recordings and determined the arrhythmogenic potential of the stem-cell derived cardiomyocyte population after exposure to the anti-arrhythmic agents. […] (Kazuto Yamazaki et al, Beat-to-Beat Variability in Field Potential Duration in Human Embryonic Stem Cell-Derived Cardiomyocyte Clusters for Assessment of_Arrhythmogenic Risk, and a Case Study of Its Application, Pharmacology & Pharmacy, Vol. 5 No. 1, 2014, pp. 117-128). Of note, all Ca^2+-recordings were conducted at least 24 h after exposure to exclude the known direct effects of the agents via ion channel modulation. […] The cells were delivered as frozen vials and stored until use in liquid nitrogen. All culturing media necessary for thawing and culturing was supplied by the cell supplier. Thawing, plating and cultivation procedures were followed according to the protocol supplied by the manufacturer. Cells were plated directly onto the 384-well Greiner μClear plates coated with fibronectin. […] Media was changed (90%) one day after plating and then every second day and 3 hours before the experiments for the pilot study. […] Treatment was ended by exchanging medium to standard cultivation medium on DIV 6. Recording took place at DIV 7. Experiments were performed at a minimum of n=10 for each compound concentration. For Ca^2+ imaging experiments media was exchanged for the recordings by a HEPES buffered recording solution. A fluorescent Ca^2+ indicator (Cal-520-AM) was applied at a concentration of 2 μM and allowed to accumulate in the cells for 30 min before the buffer was exchanged again to dye-free buffer. Cells were allowed to recover for 10 min at 37° C. in the Hamamatsu FDSS recording system. All experiments were performed at 37° C. The framerate of the camera was set to a minimum of 35 Hz for recording and a binning of 4×4. To assess if the quality was sufficient for the experiments several parameters were reviewed (by-eye inspection), including regularity of the beating, shape and amplitude of the Ca^2+ signals and variability of these parameters between the different wells. Since the cells were spontaneously active, no electrical stimulation was applied. Cells were recorded for 5 min prior to compound application. 200 μM Moxifloxacin was applied after the baseline phase in a single-concentration-per-well fashion, followed by a wash-in phase of 5 min. Fluorescent activity was then recorded for additional 5 min. Moxifloxacin without compound preincubation was included as control (n=18), distributed over multiple plates. […] Coefficient of variation was calculated as where σ denotes the standard deviation and p represents the mean.

NKX2-5 = test: Nanostring gene expression, hESC-derived cardiomyocytes in monolayer: NKX2-5; format: cell-based, human
Method: as §3, §4

[3] = cited from earlier work
ACTA2 = test: Nanostring gene expression, hESC-derived cardiomyocytes in monolayer: ACTA2; format: cell-based, human; settings: 5 days exposure to 0.1 μM and 1 μM amiodarone (FIG. 7)
Method: as §3, §4

GJA5 [4] = test: Nanostring gene expression, hESC-derived cardiomyocytes in monolayer: GJA5; format: cell-based, human; settings: 0.1 μM and 1 μM, 5 days exposure
Method: as §3, §4

GJA5 [5] = test: Gene expression in 3D suspension aggregates 48 h after removal of the agent: GJA5; format: cell-based, human; settings: 10 μM for about 120 h, measured 48 h after treatment, 3D aggregates
Method: (§1) In order to verify the lasting effect and the robustness across different culture systems, we tested the effect of the antiarrhythmic agents on the gene expression profile of the stem-cell derived cardiomyocytes using 3D suspension aggregates and measured the gene expression 48 h after removal of the anti-arrhythmic agents.
(§2) The aggregates were subsequently maintained in 6-well suspension plates on an orbital shaker (75 rpm) at a cell density of about 1.5×10^6 cells/ml in 3 mL medium.

[6] = system: hESC-derived cardiomyocytes; test: Beating of hESC-derived cardiomyocytes after exposure to antiarrhythmic drugs; format: cell-based, human
Method: Dissociated cardiomyocytes were seeded in RPMI1640 medium supplemented with 2% B27 and 0.1% Pen/Strep (Gibco) on laminin-521 or geltrex (Life Technologies)-coated plates at a cell density of 1×10^5/cm^2. […] Blank medium, addition of solvents as well as cardiomyocytes cultured for 9 days and day 42 were used as control. Beating of cells was assessed after 48 h, 72 h and 96 h.

NPPA [7] = test: Gene expression in 3D suspension aggregates 48 h after removal of the agent: NPPA; format: cell-based, human; settings: 10 μM for about 120 h, measured 48 h after treatment, 3D aggregates
Method: as §1, §2

[8] = 100 nM, proarrhythmic conditions (moxifloxacine)
[9] = 10 nM, proarrhythmic conditions (moxifloxacine)

Compound	reduction of CV (beat-to-beat variability) compared to control ([2]; 100 nM, baseline conditions)	reduction of CV (beat-to-beat variability) compared to control [2, 8]	typical plasma concentrations in vivo [3]	reduction of CV (beat-to-beat variability) compared to control ([2]; 10 nM, baseline conditions)	reduction of CV (beat-to-beat variability) compared to control [2, 9]	further results
CCN(CC)CC(=O)Nc1c(C)cccc1C [Lidocaine, lidocaine]	80.8%	84.7%	–	–	–	expression of TNNT2 (TNNT2; 1 μM, 10 μM and 100 μM lidocaine, 5 days (FIG. 12)): without effecting the expression; NPPA expression (NPPA [1]; 1 μM, 10 μM and 100 μM lidocaine, 5 days, concentration dependent (FIG. 9)): decreased; expression of NKX2-5 (NKX2-5; 1 μM, 10 μM and 100 μM lidocaine, 5 days (FIG. 11)): without effecting the expression
Cc1cccc(C)c1OCC(C)N (stereo not drawn) [Mexiletine, mexiletine]	76.79%	77.5%	0.6 to 1.7 µg/mL	–	–	–
CC(C)NCC(O)c1ccc(NS(C)(=O)=O)cc1 (stereo not drawn) [Sotalol, sotalol]	79.4%	84.9%	1 to 3 µg/mL	–	–	–
CCCCc1oc2ccccc2c1C(=O)c1cc(I)c(OCCN(CC)CC)c(I)c1 [amiodarone]	–	–	–	76.5%	83.3%	changes of the expression of ACTA2 (ACTA2): did not result in changes; upregulation of GJA5 (GJA5 [4]): > 3 fold; changes of the expression of TNNT2 (TNNT2; 5 days exposure to 0.1 μM and 1 μM amiodarone (FIG. 6)): did not result in changes; increase in GJA5 (GJA5 [5]): about 2.7 fold; reduction in NPPA expression (NPPA [1]; amiodarone treatment, 5 days exposure to 0.1 μM and 1 μM (FIG. 3)): about 3 fold; beating frequency ([6]; 1 μM): clearly reduced; beating frequency ([6]; 10 μM): abrogated; decrease in NPPA (NPPA [7]): about 2 fold; changes of the expression of NKX2-5 (NKX2-5; 5 days exposure to 0.1 μM and 1 μM amiodarone (FIG. 5)): did not result in changes
COCCc1ccc(OCC(O)CNC(C)C)cc1 (stereo not drawn) [metoprolol]	–	–	–	79.2%	83.2%	–
CC(C)NCC(O)COc1cccc2ccccc12 (stereo not drawn) [propranolol]	73.7%	88.5%	0.0021 to 0.3 µg/mL	–	–	–

Source: patent publication US20220257665A1, “APPLICATION OF […] AGENTS TO STEM CELL DERIVED CARDIOMYOCYTES AND USES THEREOF” (priority 2019, published 2022)
